Results published in patent US8349826B2, “Oxazolidinone derivatives” (Actelion Pharmaceuticals Ltd., priority 2008, dated 2013).
In brackets after ≈: the same amount, converted by molar mass.

Tested on: Moraxella catarrhalis A894
Experiment: MIC by broth microdilution (cation-adjusted Mueller-Hinton Broth, CLSI M7-A7)
Type: cell-based
Procedure: Minimal inhibitory concentrations (MICS; mg/l) were determined in cation-adjusted Mueller-Hinton Broth by a microdilution procedure following the description given in “Procedures for Dilution Antimicrobial Susceptibility Tests for Bacteria that Grow Aerobically”, Approved standard, 7th ed., Clinical and Laboratory Standards Institute (CLSI) Document M7-A7, Wayne, Pa., USA, 2006. All Example compounds were tested against several Gram positive and Gram negative bacteria such as S. aureus, E. faecalis, S. pneumoniae, M. catarrhalis, A. baumanii, E. coli or P. aeruginosa.

| Compound | MIC | MIC Moraxella catarrhalis A894 |
| --- | --- | --- |
| COc1ccc2ncc(=O)n(CC(N)C(=O)NC[C@@H]3CN(c4ccc5c(c4)OCCO5)C(=O)O3)c2c1 (mixture of isomers) [Example 12, (RS)-2-amino-N-[(R)-3-(2,3-dihydro-benzo[1,4]dioxin-6-yl)-2-oxo-oxazolidin-5-ylmethyl]-3-(7-methoxy-2-oxo-2H-quinoxalin-1-yl)-propionamide] | 1 µg/mL |  |
| COc1ccc2ncc(=O)n(C[C@H](O)CNC[C@@H]3CN(c4ccc5c(c4)NC(=O)CS5)C(=O)O3)c2n1 [Example 25, 4-((R)-2-hydroxy-3-{[(R)-2-oxo-3-(3-oxo-3,4-dihydro-2H-benzo[1,4]thiazin-6-yl)-oxazolidin-5-ylmethyl]-amino}-propyl)-6-methoxy-4H-pyrido[2,3-b]pyrazin-3-one] | ≤ 0.031 µg/mL |  |
| COc1ccc2ncc(=O)n(C3CN(CC[C@@H]4CN(c5ccc6c(c5)NC(=O)CS6)C(=O)O4)C3)c2n1 [Example 22, 6-methoxy-4-(1-{2-[(R)-2-oxo-3-(3-oxo-3,4-dihydro-2H-benzo[1,4]thiazin-6-yl)-oxazolidin-5-yl]-ethyl}-azetidin-3-yl)-4H-pyrido[2,3-b]pyrazin-3-one] | ≤ 0.031 µg/mL |  |
| COc1ccc2ncc(=O)n(C3CN(CCC[C@@H]4CN(c5ccc6c(c5)NC(=O)CS6)C(=O)O4)C3)c2n1 [Example 23, 6-methoxy-4-(1-{3-[(R)-2-oxo-3-(3-oxo-3,4-dihydro-2H-benzo[1,4]thiazin-6-yl)-oxazolidin-5-yl]-propyl}-azetidin-3-yl)-4H-pyrido[2,3-b]pyrazin-3-one] | ≤ 0.031 µg/mL |  |
| COc1ccc2ncc(=O)n(CCNCC[C@@H]3CN(c4ccc5c(c4)NC(=O)CS5)C(=O)O3)c2n1 [Example 20, 6-methoxy-4-(2-{2-[(R)-2-oxo-3-(3-oxo-3,4-dihydro-2H-benzo[1,4]thiazin-6-yl)-oxazolidin-5-yl]-ethylamino}-ethyl)-4H-pyrido[2,3-b]pyrazin-3-one] | ≤ 0.031 µg/mL |  |
| COc1ccc2ccc(=O)n(C[C@H](O)CNC[C@@H]3CN(c4ccc5c(c4)NC(=O)CS5)C(=O)O3)c2c1.Cl [Example 14, 6-((R)-5-{[(R)-2-hydroxy-3-(7-methoxy-2-oxo-2H-quinolin-1-yl)-propylamino]-methyl}-2-oxo-oxazolidin-3-yl)-4H-benzo[1,4]thiazin-3-one hydrochloride] | ≤ 0.031 µg/mL |  |
| COc1ccc2ccc(=O)n(CCCNC[C@@H]3CN(c4ccc5c(c4)NC(=O)CS5)C(=O)O3)c2c1 [Example 1, 6-((R)-5-{[3-(7-methoxy-2-oxo-2H-quinolin-1-yl)-propylamino]-methyl}-2-oxo-oxazolidin-3-yl)-4H-benzo[1,4]thiazin-3-one] | ≤ 0.031 µg/mL |  |
| COc1ccc2nc(C)c(=O)n(CCCNC[C@@H]3CN(c4ccc5c(c4)NC(=O)CS5)C(=O)O3)c2n1 [Example 35, 6-methoxy-2-methyl-4-(3-{[(R)-2-oxo-3-(3-oxo-3,4-dihydro-2H-benzo[1,4]thiazin-6-yl)-oxazolidin-5-ylmethyl]-amino}-propyl)-4H-pyrido[2,3-b]pyrazin-3-one] | ≤ 0.016 µg/mL |  |
| COc1ccc2ncc(=O)n(CCCNC[C@@H]3CN(c4ccc5c(c4)NC(=O)CO5)C(=O)O3)c2n1 [Example 19, 6-methoxy-4-(3-{[(R)-2-oxo-3-(3-oxo-3,4-dihydro-2H-benzo[1,4]oxazin-6-yl)-oxazolidin-5-ylmethyl]-amino}-propyl)-4H-pyrido[2,3-b]pyrazin-3-one] | ≤ 0.031 µg/mL |  |
| COc1ccc2ncc(=O)n(C[C@H](O)CNC[C@@H]3CN(c4ccc5c(c4)OCCO5)C(=O)O3)c2n1 [Example 26, 4-((R)-3-{[(R)-3-(2,3-dihydro-benzo[1,4]dioxin-6-yl)-2-oxo-oxazolidin-5-ylmethyl]-amino}-2-hydroxy-propyl)-6-methoxy-4H-pyrido[2,3-b]pyrazin-3-one] | 0.25 µg/mL (≈ 0.517 µM) |  |
| COc1ccc2ccc(=O)n(C3CN(CCC4CN(c5ccc6c(c5)NC(=O)CS6)C(=O)O4)C3)c2c1 (racemic) [Example 5, (RS)-6-(5-{2-[3-(7-methoxy-2-oxo-2H-quinolin-1-yl)-azetidin-1-yl]-ethyl}-2-oxo-oxazolidin-3-yl)-4H-benzo[1,4]thiazin-3-one] | 0.25 µg/mL (≈ 0.494 µM) |  |
| O=C1CSc2ccc(N3C[C@@H](CNCCCn4c(=O)ccc5ccc(Br)cc54)OC3=O)cc2N1 [Example 2] |  | <=0.031 mg/l |
| COc1ccc2ncc(=O)n(CCC(=O)NC[C@@H]3CN(c4ccc5c(c4)NC(=O)CS5)C(=O)O3)c2c1 [Example 6, 3-(7-methoxy-2-oxo-2H-quinoxalin-1-yl)-N-[(R)-2-oxo-3-(3-oxo-3,4-dihydro-2H-benzo[1,4]thiazin-6-yl)-oxazolidin-5-ylmethyl]-propionamide] | ≤ 0.031 µg/mL |  |
| COc1ccc2ccc(=O)n(CCC(=O)NC[C@@H]3CN(c4ccc5c(c4)OCCO5)C(=O)O3)c2c1 [Example 7, N-[(R)-3-(2,3-dihydro-benzo[1,4]dioxin-6-yl)-2-oxo-oxazolidin-5-ylmethyl]-3-(7-methoxy-2-oxo-2H-quinolin-1-yl)-propionamide] | 0.5 µg/mL (≈ 1.04 µM) |  |
| COc1ccc2ccc(=O)n(C[C@H](O)CNC[C@@H]3CN(c4ccc5c(c4)NC(=O)CO5)C(=O)O3)c2c1.Cl [Example 13, 6-((R)-5-{[(R)-2-hydroxy-3-(7-methoxy-2-oxo-2H-quinolin-1-yl)-propylamino]-methyl}-2-oxo-oxazolidin-3-yl)-4H-benzo[1,4]oxazin-3-one hydrochloride] | ≤ 0.031 µg/mL |  |
| COc1ccc2ncc(=O)n(CCCNC[C@@H]3CN(c4ccc5c(c4)OCCO5)C(=O)O3)c2n1 [Example 18, 4-(3-{[(R)-3-(2,3-dihydro-benzo[1,4]dioxin-6-yl)-2-oxo-oxazolidin-5-ylmethyl]-amino}-propyl)-6-methoxy-4H-pyrido[2,3-b]pyrazin-3-one] | ≤ 0.031 µg/mL |  |
| COc1ccc2c(c1)N(CCCNC[C@@H]1CN(c3ccc4c(c3)OCCO4)C(=O)O1)C(=O)CC2 [Example 28, 1-(3-{[(R)-3-(2,3-dihydro-benzo[1,4]dioxin-6-yl)-2-oxo-oxazolidin-5-ylmethyl]-amino}-propyl)-7-methoxy-3,4-dihydro-1H-quinolin-2-one] | 1 µg/mL (≈ 2.14 µM) |  |
| COc1ccc2ncc(=O)n(C[C@H](O)CNC[C@@H]3CN(c4ccc5c(c4)NC(=O)CO5)C(=O)O3)c2n1 [Example 27] |  | <=0.031 mg/l |
| COc1ccc2ncc(=O)n(C3CN(CC[C@H]4CN(c5ccc6c(c5)NC(=O)CS6)C(=O)O4)C3)c2n1 [Example 24, 6-methoxy-4-(1-{2-[(S)-2-oxo-3-(3-oxo-3,4-dihydro-2H-benzo[1,4]thiazin-6-yl)-oxazolidin-5-yl]-ethyl}-azetidin-3-yl)-4H-pyrido[2,3-b]pyrazin-3-one] | ≤ 0.031 µg/mL |  |
| COc1ccc2ccc(=O)n(CCC(=O)NC[C@@H]3CN(c4ccc5c(c4)NC(=O)CS5)C(=O)O3)c2c1 [Example 11, 3-(7-methoxy-2-oxo-2H-quinolin-1-yl)-N-[(R)-2-oxo-3-(3-oxo-3,4-dihydro-2H-benzo[1,4]thiazin-6-yl)-oxazolidin-5-ylmethyl]-propionamide] | ≤ 0.031 µg/mL |  |
| COc1ccc2ccc(=O)n(C[C@@H](O)CNC[C@@H]3CN(c4cc5c(cc4F)SCC(=O)N5)C(=O)O3)c2c1 [Example 16, 7-fluoro-6-((R)-5-{[(S)-2-hydroxy-3-(7-methoxy-2-oxo-2H-quinolin-1-yl)-propylamino]-methyl}-2-oxo-oxazolidin-3-yl)-4H-benzo[1,4]thiazin-3-one] | ≤ 0.031 µg/mL |  |
| rac-4-(2-{2-[3-(2,3-dihydro-[1,4]dioxino[2,3-b]pyridin-6-yl)-2-oxo-oxazolidin-5-yl]-ethylamino}-ethyl)-6-methoxy-4H-pyrido[2,3-b]pyrazin-3-one [Example 32] |  | 1 µg/mL |
| COc1ccc2ncc(=O)n(CCNCCC3CN(c4cc5c(cn4)OCCO5)C(=O)O3)c2n1 (racemic) [Example 31, rac-4-(2-{2-[3-(2,3-dihydro-[1,4]dioxino[2,3-c]pyridin-7-yl)-2-oxo-oxazolidin-5-yl]-ethylamino}-ethyl)-6-methoxy-4H-pyrido[2,3-b]pyrazin-3-one] | 1 µg/mL (≈ 2.13 µM) |  |
| COc1ccc2ccc(=O)n(CCCNC[C@@H]3CN(c4ccc5c(c4)OCCO5)C(=O)O3)c2c1 [Example 3, 1-(3-{[(R)-3-(2,3-dihydro-benzo[1,4]dioxin-6-yl)-2-oxo-oxazolidin-5-ylmethyl]-amino}-propyl)-7-methoxy-1H-quinolin-2-one] | ≤ 0.031 µg/mL |  |
| COc1ccc2ccc(=O)n(C[C@@H](O)CNC[C@@H]3CN(c4ccc5c(c4)NC(=O)CS5)C(=O)O3)c2c1 [Example 15, 6-((R)-5-{[(S)-2-hydroxy-3-(7-methoxy-2-oxo-2H-quinolin-1-yl)-propylamino]-methyl}-2-oxo-oxazolidin-3-yl)-4H-benzo[1,4]thiazin-3-one] | ≤ 0.031 µg/mL |  |
| COc1ccc2ncc(=O)n(CCC(=O)NC[C@@H]3CN(c4ccc5c(c4)OCCO5)C(=O)O3)c2c1 [Example 10, N-[(R)-3-(2,3-dihydro-benzo[1,4]dioxin-6-yl)-2-oxo-oxazolidin-5-ylmethyl]-3-(7-methoxy-2-oxo-2H-quinoxalin-1-yl)-propionamide] | 0.125 µg/mL (≈ 0.26 µM) |  |
| O=C1O[C@H](CNCCCn2c(=O)ccc3ccc(Br)cc32)CN1c1ccc2c(c1)OCCO2 [Example 4, 7-bromo-1-(3-{[(R)-3-(2,3-dihydro-benzo[1,4]dioxin-6-yl)-2-oxo-oxazolidin-5-ylmethyl]-amino}-propyl)-1H-quinolin-2-one] | ≤ 0.031 µg/mL |  |
| COc1ccc2ncc(=O)n(CCCNC[C@@H]3CN(c4ccc(C)c(F)c4)C(=O)O3)c2n1 [Example 29, 4-(3-{[(R)-3-(3-fluoro-4-methyl-phenyl)-2-oxo-oxazolidin-5-ylmethyl]-amino}-propyl)-6-methoxy-4H-pyrido[2,3-b]pyrazin-3-one] | 0.063 µg/mL (≈ 0.143 µM) |  |
| CCOc1ccc(N2C[C@@H](CCN3CC(n4c(=O)cnc5ccc(OC)nc54)C3)OC2=O)cc1 [Example 34, 4-(1-{2-[(R)-3-(4-ethoxy-phenyl)-2-oxo-oxazolidin-5-yl]-ethyl}-azetidin-3-yl)-6-methoxy-4H-pyrido[2,3-b]pyrazin-3-one] | 8 µg/mL (≈ 17.2 µM) |  |
